Test results: publication PMC10692721, “Drug discovery for heart failure targeting myosin-binding protein C” (The Journal of Biological Chemistry, 2023)
Entries after “also recorded” stand apart in the source; their conditions may differ. Counter-ions that a name gives are not always drawn.

Experiments:
[1] = test system: TMR-cC0-C2 (C0-C2 fragment of human cMyBP-C); assay: FLT-TMR concentration-response assay (FLT of TMR on cC0-C2, no actin); format: binding; conditions: for effect on FLT of TMR-cC0-C2 (in words): concentration-response, no actin; for cC0-C2/cC0-C2#P (ratio of FLT changes) / cC0-C2 FLT change (% change from DMSO, FLT of TMR-MyBP-C): 60 μM compound
Description: (§1) Compounds identified as initial hits were further examined to determine the concentration–response curves for seven conditions ([1]): FMAL-actin alone identified actin-binding compounds that alter the FLT of FMAL-actin ([2]).
(§2) Fluorescence lifetime (FLT) measurements were acquired using a high-throughput FLT plate reader (Fluorescence Innovations, Inc) ([14], [27]), provided by Photonic Pharma LLC. […] The observed waveforms were analyzed as described previously ([15], [28]).
(§3) The primary hits were dissolved in DMSO to make a 10 mM stock solution, which was serially diluted in 96-well mother plates. Hits were screened at eight concentrations (0.5–100 μM). […] Compounds (1 μl) were transferred from the mother plates into 384-well plates using a Mosquito HV liquid handler (TTP Labtech Ltd, Hertfordshire, UK). The same procedure of dispensing as for the pilot screening was applied in the concentration-response assays. Concentration dependence of the FLT-FRET (E/EDMSO) or FLT-TMR (Δτ) change data was fit to a Hill equation only under certain conditions to help guide the eye (Fig. 4).

[2] = test system: TMR-fC1-C2 (C1-C2 of fast skeletal MyBP-C); assay: FLT-TMR concentration-response assay, fC1-C2; format: binding; conditions: for effect on FLT of TMR-fC1-C2 (in words): concentration-response, no actin; for cC0-C2/fC1-C2 (ratio of FLT changes) / fC1-C2 FLT change (% change from DMSO, FLT of TMR-MyBP-C): 60 μM compound
Description: as §1, §2, §3

[3] = test system: FMAL-actin/TMR-cC0-C2 interaction; assay: FLT-FRET concentration-response assay, FMAL-actin plus TMR-cC0-C2; format: binding, human; conditions: for specificity of FLT-FRET effect for unphosphorylated over phosphorylated cC0-C2: effect on cC0-C2 compared to phosphorylated cC0-C2 (Tables 1 and 2); for effect on FLT-FRET / binding between FMAL-actin and TMR-cC0-C2 (in words): unphosphorylated cC0-C2
Description: as §1, §2, §3

[4] = test system: FMAL-actin/TMR-fC1-C2 interaction; assay: FLT-FRET concentration-response assay, FMAL-actin plus TMR-fC1-C2; format: binding
Description: as §1, §2, §3

[5] = test system: FMAL-actin plus TMR-cC0-C2; assay: Selleck library HTS, 473 nm excitation (FLT of FMAL-actin with TMR-cC0-C2, FLT-FRET); format: binding, human; conditions: for 473-nm Δτ, Repeat 1 / 473-nm Δτ, Repeat 2: initial screen, 30 μM compound; for 473-nm z-score (based on avg Δτ): robust z-score, hit threshold ±4, 30 μM compound
Outline: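 Donor fluorescence lifetime was then recorded. Waveforms were fit to a single exponential, and ΔFLT was obtained after a moving-median plate-gradient correction (half-row window), rescaled by the median DMSO lifetime.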

[6] = test system: TMR-cC0-C2; assay: Selleck library HTS, 532 nm excitation (FLT of TMR-cC0-C2 in presence of FMAL-actin); format: binding, human; conditions: for 532-nm Δτ, Repeat 1 / 532-nm Δτ, Repeat 2: initial screen, 30 μM compound; for 532-nm z-score (based on avg Δτ): robust z-score, hit threshold ±4, 30 μM compound
[7] = test system: FMAL-actin/PKA-phosphorylated TMR-cC0-C2 interaction; assay: FLT-FRET concentration-response assay, FMAL-actin plus PKA-phosphorylated TMR-cC0-C2; format: binding, human; conditions: phosphorylated cC0-C2
Description: as §1, §2, §3

[8] = test system: PKA-phosphorylated TMR-cC0-C2 (cC0-C2#P); assay: FLT-TMR concentration-response assay, PKA-phosphorylated cC0-C2; format: binding, human; conditions: for cC0-C2#P FLT change (% change from DMSO, FLT of TMR-MyBP-C): 60 μM compound
Description: as §1, §2, §3

[9] = test system: rabbit fast skeletal (psoas) myofibrils; assay: Skeletal myofibril ATPase assay; format: biochemical; conditions: 50 μM compound; for effect on skeletal MF ATPase activity (in words): pCa 8 to pCa 4
Description: Rabbit psoas and bovine cardiac myofibrils were prepared as described in our previous study ([17]). An enzyme-coupled, NADH-linked ATPase assay was used to measure skeletal and cardiac myofibril ATPase activity in 96-well microplates at 23 °C. Ionic strength was maintained below 0.2 M, so myofilaments remained insoluble and stable ([32]). To achieve optimal enzymatic activities, buffers for skeletal and cardiac myofibrils differed slightly ([33], [34]): skeletal in 50 mM MOPS, 100 mM KCl, 5 mM MgCl2, 1 mM EGTA, pH 7.0; cardiac in 20 mM MOPS, 35 mM NaCl, 5 mM MgCl2, 1 mM EGTA, pH 7.0. Each well in the microplate contained an assay mix of 0.84 mM phosphoenolpyruvate, 0.17 mM NADH, 10 U/vol pyruvate kinase, 20 U/vol lactate dehydrogenase. The concentration of free Ca^2+ was controlled by EGTA buffering ([35]). Myofibrils were dispensed in microplates with a multichannel pipette and were incubated with assay mix plus compound of interest for 20 min at 23 °C. The concentration of myofibrils used was 0.01 mg/ml for skeletal and 0.05 mg/ml for cardiac myofibrils. The assay was started upon the addition of ATP, at a final concentration of 2.1 mM (total volume to 200 μl), and absorbance was recorded at 340 nm in a SpectraMax Plus microplate spectrophotometer from Molecular Devices. The steady-state myofibrillar ATPase rate was measured from NADH oxidation, measured as the rate of decrease in absorption at 340 nm for 30 min, with absorption data collected every 15 s. All data and statistical analysis of steady-state kinetics were conducted with the OriginPro program. The results were fitted with the Hill equation:(6) V=V0+(Vmax/1+10^−n∗^(pCa50−pCa)) where V is the ATPase rate and n is the Hill coefficient.
ATPase activity is reported on the μmol ATP/mg protein/min scale. Average data are presented as mean ± SD. Sample means are derived from three different myofibril preps (N = 3), each done in duplicate (n = 6).
The effects of compounds on ATPase activity of myofibrils were determined in the presence of 50 μM compound, across a 12-point pCa range from 4.0 (activation) to 8.0 (relaxation). The calcium sensitivity (pCa50) was determined by fitting the curves to the Hill equation. In all experiments, a 1% DMSO-only control was included. The normalized ATPase activity of the selected compounds can be found in Figure 6.

Compound | effect on FLT-FRET / binding between FMAL-actin and TMR-cC0-C2 (in words) [3] | effect on FLT-FRET / binding between FMAL-actin and TMR-fC1-C2 (in words) [4] | effect on skeletal MF ATPase activity (in words) [9] | effect on FLT of TMR-cC0-C2 (in words) [1] | effect on FLT of TMR-fC1-C2 (in words) [2] | specificity of FLT-FRET effect for unphosphorylated over phosphorylated cC0-C2 [3] | 473-nm Δτ, Repeat 1 [5] | 473-nm Δτ, Repeat 2 [5] | 473-nm z-score (based on avg Δτ) [5] | 532-nm Δτ, Repeat 1 [6] | 532-nm Δτ, Repeat 2 [6] | 532-nm z-score (based on avg Δτ) [6] | cC0-C2/cC0-C2#P (ratio of FLT changes) [1] | cC0-C2 FLT change (% change from DMSO, FLT of TMR-MyBP-C) [1] | cC0-C2#P FLT change (% change from DMSO, FLT of TMR-MyBP-C) [8] | cC0-C2/fC1-C2 (ratio of FLT changes) [2] | fC1-C2 FLT change (% change from DMSO, FLT of TMR-MyBP-C) [2] | further results
Sacubitril/valsartan [Sacubitril/valsartan (LCZ696)] | decreased | decreased |  | do not affect | do not affect | stronger reduction of FRET with non-phosphorylated than phosphorylated | 0.140 ns | 0.095 ns | 6.60 | -0.025 ns | 0.012 ns | -0.37 |  |  |  |  |  | 
C#Cc1cccc(Nc2ncnc3cc(OCCOC)c(OCCOC)cc23)c1 [Erlotinib] | decrease |  | affected; also recorded: affect skeletal muscle ATPase | increases; also recorded: affect | increases |  | 0.026 ns | 0.001 ns | 0.78 | 0.100 ns | 0.119 ns | 6.74 | 1.0 | 9.8% | 9.7% | 1.2 | 8.5% | effect on FLT of PKA-phosphorylated TMR-cC0-C2 (in words) ([8]; concentration-response, no actin): increases
O=C(Nc1cccc2c(=O)cc(-c3nnn[nH]3)oc12)c1ccc(OCCCCc2ccccc2)cc1 [Pranlukast] |  |  | affected |  |  |  | 0.061 ns | 0.008 ns | 1.95 | 0.073 ns | 0.116 ns | 5.80 | 0.6 | 30.7% | 50.1% | 0.6 | 50.3% | effect on skeletal MF ATPase activity (in words) ([9]; listed as Pranleukast): affected ATPase
CO/N=C(\C(=O)N[C@@H]1C(=O)N2C(C(=O)O)=C(C[N+]3(C)CCCC3)CS[C@H]12)c1csc(N)n1 [Cefepime dihydrochloride monohydrate] |  |  | affected ATPase |  |  |  | 0.127 ns | 0.102 ns | 6.43 | 0.006 ns | -0.096 ns | -2.70 |  |  |  |  |  | effects on actin binding (FRET) ([3]; range over cC0-C2, phosphorylated cC0-C2 and fC1-C2): 13–35%; reduction in actin binding (fC1-C2-actin FRET) ([4]; skeletal MyBP-C): 13%
NC(=O)c1cc[n+](CC2=C(C(=O)O)N3C(=O)[C@@H](NC(=O)[C@@H](c4ccccc4)S(=O)(=O)[O-])[C@H]3SC2)cc1 [Cefsulodin sodium] |  |  | affected ATPase |  |  |  | 0.394 ns | 0.316 ns | 19.91 | 0.114 ns | 0.083 ns | 6.07 | 1.1 | 9.1% | 8.1% | 0.8 | 11.5% | effect on skeletal MF ATPase activity (in words) ([9]; listed as Cefsoludin sodium): affected
C[C@@H]1O[C@@H](O[C@H]2[C@H](O[C@H]3CC[C@@]4(C)[C@@H](CC[C@]5(C)[C@@H]4CC=C4[C@@H]6CC(C)(C)CC[C@]6(C(=O)O)CC[C@]45C)[C@]3(C)CO)OC[C@H](O)[C@@H]2O)[C@H](O)[C@H](O)[C@H]1O [α-Hederin] |  |  |  |  |  | 13–54 fold | -0.087 ns | -0.051 ns | -3.83 | 0.105 ns | 0.175 ns | 8.58 | 0.9 | 6.7% | 7.1% | 1.0 | 6.7% | fold effect on increased FRET (or binding) (Table 2) ([3]; comparison not given): fivefold or greater
C[C@@H](O)[C@H]1C(=O)N2C(C(=O)[O-])=C(S[C@@H]3CN[C@H](C(=O)Nc4cccc(C(=O)O)c4)C3)[C@H](C)[C@H]12.[Na+] [Ertapenem sodium] |  |  | marked increase in ATPase activity at pCa 8; also recorded: affected ATPase |  |  |  | 0.353 ns | 0.231 ns | 16.37 | 0.079 ns | 0.157 ns | 7.23 | 1.3 | 10.2% | 8.0% | 0.8 | 12.2% | effect on Ca^2+-sensitivity of skeletal MF ATPase (in words) [9]: altered Ca^2+ sensitivity

More lines, main results first:

effect on FLT-FRET / binding between FMAL-actin and TMR-cC0-C2 (in words) [3] | effect on FLT-FRET / binding between FMAL-actin and TMR-fC1-C2 (in words) [4] | effect on skeletal MF ATPase activity (in words) [9] | Compound | effect on FLT of TMR-cC0-C2 (in words) [1] | effect on FLT of TMR-fC1-C2 (in words) [2] | specificity of FLT-FRET effect for unphosphorylated over phosphorylated cC0-C2 [3] | 473-nm Δτ, Repeat 1 [5] | 473-nm Δτ, Repeat 2 [5] | 473-nm z-score (based on avg Δτ) [5] | 532-nm Δτ, Repeat 1 [6] | 532-nm Δτ, Repeat 2 [6] | 532-nm z-score (based on avg Δτ) [6] | cC0-C2/cC0-C2#P (ratio of FLT changes) [1] | cC0-C2 FLT change (% change from DMSO, FLT of TMR-MyBP-C) [1] | cC0-C2#P FLT change (% change from DMSO, FLT of TMR-MyBP-C) [8] | cC0-C2/fC1-C2 (ratio of FLT changes) [2] | fC1-C2 FLT change (% change from DMSO, FLT of TMR-MyBP-C) [2] | further results
decreased | decreased |  | CC(C(=O)O)c1ccc2c(c1)CC(=O)c1ccccc1S2 (stereo not shown) [Zaltoprofen] | do not affect | do not affect | stronger reduction of FRET with non-phosphorylated than phosphorylated | 0.113 ns | 0.083 ns | 5.52 | -0.015 ns | 0.015 ns | 0.04 |  |  |  |  |  | effect on FLT-FRET / binding between FMAL-actin and PKA-phosphorylated TMR-cC0-C2 (in words) [7]: decreased
decreased | decreased |  | CCCCC(=O)N(Cc1ccc(-c2ccccc2-c2nnn[nH]2)cc1)[C@H](C(=O)O)C(C)C [Valsartan] |  |  | stronger reduction of FRET with non-phosphorylated than phosphorylated | 0.149 ns | 0.058 ns | 5.83 | 0.000 ns | 0.013 ns | 0.44 |  |  |  |  |  | 
